What was measured:
[1] = target: Neuronal acetylcholine receptor; assay: Binding affinity towards nicotinic acetylcholine receptor (nACh) using [3H](-)-nicotine as radioligand in rat brain; assay type: tissue-based
Mus musculus [2] = assay: Antinociceptive response as maximal possible effect upon subcutaneous administration in mice at the dose of 15 mg/kg; assay type: functional
Mus musculus [3] = assay: Antinociceptive response as maximal possible effect upon intrathecal administration in mouse at the dose of 20 mg/kg; assay type: functional
Mus musculus [4] = assay: Antinociceptive response as maximal possible effect upon subcutaneous administration in mice at the dose of 10 mg/kg; assay type: functional
Mus musculus [5] = assay: Antinociceptive response as maximal possible effect upon intrathecal administration in mouse at the dose of 25 mg/kg; assay type: functional
Mus musculus [6] = assay: Antinociceptive response as maximal possible effect upon intrathecal administration in mouse at the dose of 15 mg/kg; assay type: functional
Mus musculus [7] = assay: Antinociceptive effect upon subcutaneous administration in mice using tail-flick assay; 12-18; assay type: functional; settings: sc
Mus musculus [8] = assay: Antinociceptive effect upon intrathecal administration in mouse using tail-flick assay; 10-19; assay type: functional
Mus musculus [9] = assay: Antinociceptive response as maximal possible effect upon subcutaneous administration in mice at the dose of 20 mg/kg; assay type: functional
Mus musculus [10] = assay: Antinociceptive effect upon intrathecal administration in mouse using tail-flick assay; 16-23; assay type: functional
Mus musculus [11] = assay: Antinociceptive effect upon subcutaneous administration in mice using tail-flick assay; 0.9-2.2; assay type: functional; settings: sc
Mus musculus [12] = organism: Mus musculus; assay: animal or person; settings: Tail, sc

Compound `CCC[N+](C)(C)CCOc1cccnc1.[Cl-]` has a Ki [1] of 29.2 nM, an MPE (Mus musculus [2]) of 1% and an MPE (Mus musculus [3]) of 3%.
Compound `COc1ccc(OCC[N+](C)(C)C)cn1` has a Ki [1] of 37 nM.
Work on `CC[N+](C)(C)CCOc1ccc(Br)nc1.[I-]` yielded a Ki [1] of 5 nM, an MPE (Mus musculus [4]) of 0% and an MPE (Mus musculus [5]) of 0%.
Compound `CC(C)[N+](C)(C)CCOc1cccnc1.[Cl-]` has a Ki [1] of 13.8 nM, an MPE (Mus musculus [2]) of 3% and an MPE (Mus musculus [3]) of 2%.
Compound `C[N+](C)(C)CCOc1ccc(Cl)nc1.[I-]` has a Ki [1] of 1.3 nM, an MPE (Mus musculus [4]) of 5% and an MPE (Mus musculus [6]) of 4%.
`CN(C)CCOc1cccnc1.O=C(O)C(=O)O` gave an ED50 (Mus musculus [7]) of 15 mg/kg.
`CC[N+](C)(C)CCOc1cccnc1.[Cl-]` showed a Ki [1] of 2.2 nM, an ED50 (Mus musculus [8]) of 14 ug mouse-1 and an MPE (Mus musculus [9]) of 5%.
Work on `C[N+](C)(C)CCOc1cccnc1.[Cl-]` yielded a Ki [1] of 0.5 nM, an ED50 (Mus musculus [10]) of 19 ug mouse-1 and an ED50 (Mus musculus [11]) of 1.4 mg/kg.
`CN1CCC[C@H]1c1cccnc1` [NICOTINE] showed an ED50 (Mus musculus [12]) of 1.5 mg/kg.

Reference: ChEMBL document CHEMBL1136187, “Quaternary ammonium 3-(aminoethoxy)pyridines as antinociceptive agents” (Bioorg Med Chem Lett, 2003)
